Tests used:
L1210 = assay: In vitro inhibition of L1210 murine leukemia (Drug sensitivity was determined by counting surviving cells after 48 hr of continuous exposure to at least 4 conc. of drug); type: functional, cell-based; settings: Mus musculus, L1210, 48 h
Mus musculus [1] = assay: In vivo inhibition of L1210 murine leukemia, expressed as optimal dose (CDF21 mice were given an injection of 105 cells i.p. and treated on day 1); type: functional
Mus musculus [2] = assay: In vivo cytotoxicity against L1210 murine leukemia, expressed as median survival time of treated vs. untreated mice X 100 (CDF21 mice were given an injection of 105 cells i.p. and treated on day 1); type: functional

Row | Compound | IC50 (L1210) [µg/mL] | Optimal dose (Mus musculus [1]) [mg/kg] | T/C (Mus musculus [2]) [%]
1 | C=C(Br)C(=O)Nc1nc(C(=O)Nc2cc(C(=O)Nc3cc(C(=O)NCCC(=N)N)n(C)c3)n(C)c2)cs1.Cl | 23.8 |  | 
2 | C=C(Br)C(=O)Nc1cc(C(=O)Nc2cc(C(=O)Nc3cc(C(=O)NCCC(=N)N)n(C)c3)n(C)c2)n(C)n1.Cl | 0.15 | 30 | 181
3 | Cl.Cn1cc(NC(=O)c2cc(NC(=O)c3cc(NC(=O)c4ccc(N(CCCl)CCCl)cc4)nn3C)cn2C)cc1C(=O)NCCC(=N)N | 1.39 | 12.5 | 118
4 | Cl.Cn1cc(NC(=O)c2cc(NC(=O)c3cc(NC(=O)c4ccc(N(CCCl)CCCl)cc4)cn3C)cn2C)cc1C(=O)NCCC(=N)N [TALLIMUSTINE CHLORIDE] |  | 3.13 | 175
5 | Cl.Cn1cc(NC(=O)c2cc(NC(=O)c3csc(NC(=O)c4ccc(N(CCCl)CCCl)cc4)n3)cn2C)cc1C(=O)NCCC(=N)N | 32.5 |  | 
6 | Cl.Cn1cc(NC(=O)c2ccc(N(CCCl)CCCl)cc2)cc1C(=O)Nc1cc(C(=O)Nc2cc(C(=O)NCCC(=N)N)n(C)n2)n(C)c1 | 0.03 | 6.25 | 213
7 | Cl.Cn1cc(NC(=O)c2csc(NC(=O)c3ccc(N(CCCl)CCCl)cc3)n2)cc1C(=O)Nc1cc(C(=O)NCCC(=N)N)n(C)n1 | 7.2 |  | 
8 | Cl.Cn1cc(NC(=O)c2ccc(N(CCCl)CCCl)cc2)cc1C(=O)Nc1cc(C(=O)Nc2cc(C(=O)NCCC(=N)N)n(C)n2)n(C)n1 | 0.11 | 25 | 259

— ChEMBL document CHEMBL1151591, “Structure-activity relationship of novel tallimustine derivatives: synthesis and antitumor activity” (Bioorg Med Chem Lett, 1996)
